# Experimental data reported in article doi:10.1101/2025.04.28.650843v1, “The structure of phycobilisome with a bicylindrical core from the cyanobacterium Synechococcus elongatus PCC 7942” (biorxiv, 2025).
# Legend:
# Assay in all cases: cryo-EM structure of phycobilisome, […] Å
# Assay type in all cases: binding
# ApcD = biological target: T1, ApcD (Synechococcus elongatus, UniProt Q31RP7); details: covalent; terminal emitter; pH 7.0
# T1 construct: gene Synpcc7942_0240; native subunit in phycobilisome core (trimer 4), glutaraldehyde cross-linked
# T1 sequence (Q31RP7 1-163): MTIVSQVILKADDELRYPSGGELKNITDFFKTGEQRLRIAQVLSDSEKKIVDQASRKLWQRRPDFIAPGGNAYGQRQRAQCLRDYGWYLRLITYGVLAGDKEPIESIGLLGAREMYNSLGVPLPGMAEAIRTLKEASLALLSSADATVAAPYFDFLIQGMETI
# ApcE (LCM), αApcE domain = biological target: T2, ApcE (LCM), αApcE domain (Synechococcus elongatus, UniProt Q31RF9); details: covalent, terminal emitter, pH 7.0
# T2 construct: gene Synpcc7942_0328; native ApcE with two REP domains in phycobilisome core (trimer 3), glutaraldehyde cross-linked; bilin in N-terminal αApcE domain
# T2 sequence (Q31RF9 1-705): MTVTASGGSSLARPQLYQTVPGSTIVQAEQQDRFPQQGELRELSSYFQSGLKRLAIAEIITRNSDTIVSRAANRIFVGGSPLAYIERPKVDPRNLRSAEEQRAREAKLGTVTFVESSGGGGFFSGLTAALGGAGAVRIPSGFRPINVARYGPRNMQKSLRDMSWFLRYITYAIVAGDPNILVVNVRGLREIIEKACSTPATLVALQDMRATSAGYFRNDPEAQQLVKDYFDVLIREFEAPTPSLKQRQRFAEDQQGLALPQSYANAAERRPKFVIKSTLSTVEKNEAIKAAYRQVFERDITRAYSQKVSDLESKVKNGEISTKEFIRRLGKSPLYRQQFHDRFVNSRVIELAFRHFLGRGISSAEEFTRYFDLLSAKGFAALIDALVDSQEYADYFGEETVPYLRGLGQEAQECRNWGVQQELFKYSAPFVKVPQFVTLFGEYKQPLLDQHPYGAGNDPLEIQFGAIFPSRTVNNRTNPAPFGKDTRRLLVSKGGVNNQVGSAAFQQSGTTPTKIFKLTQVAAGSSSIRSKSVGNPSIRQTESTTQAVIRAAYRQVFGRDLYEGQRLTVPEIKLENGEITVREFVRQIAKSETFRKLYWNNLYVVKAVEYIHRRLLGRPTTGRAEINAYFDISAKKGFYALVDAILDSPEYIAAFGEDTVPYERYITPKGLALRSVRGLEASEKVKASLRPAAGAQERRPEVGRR
# ApcF = biological target: T3, ApcF (Synechococcus elongatus, UniProt O50209); details: covalent; pH 7.0
# T3 construct: native subunit in phycobilisome core, glutaraldehyde cross-linked
# T3 sequence (O50209 1-169): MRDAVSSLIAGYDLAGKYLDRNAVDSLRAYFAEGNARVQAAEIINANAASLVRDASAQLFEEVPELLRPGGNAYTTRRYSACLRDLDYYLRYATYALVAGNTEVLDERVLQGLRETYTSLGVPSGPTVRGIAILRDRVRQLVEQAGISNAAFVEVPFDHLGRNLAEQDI
compound,measurement,setting,value
C/C=C1/C(=C/C2=NC(=C\c3[nH]c(/C=C4\NC(=O)C(CC)=C4C)c(C)c3CCC(=O)O)/C(CCC(=O)O)=C2C)NC(=O)[C@@H]1C [phycocyanobilin],"cryo-EM structure of phycobilisome, 2.98 Å",ApcD,terminal emitters (ApcD and the α^ApcE domain) are deduced based on the shortest distances
same,"cryo-EM structure of phycobilisome, 2.98 Å","ApcE (LCM), αApcE domain",terminal emitters (ApcD and the α^ApcE domain) are deduced based on the shortest distances
same,"cryo-EM structure of phycobilisome, 2.98 Å",ApcF,Bilins in rods and core are painted the same colors as the corresponding proteins
